Reference: ChEMBL document CHEMBL1151757, “Synthesis, radiosynthesis, and biological evaluation of fluorine-18-labeled 2beta-carbo(fluoroalkoxy)-3beta-(3'-((Z)-2-haloethenyl)phenyl)nortropanes: candidate radioligands for in vivo imaging of the serotonin transporter with positron emission tomography” (J Med Chem, 2008)

Columns and labels:
[1] = Drug uptake in anesthetized cynomolgus monkey brain frontal lobe after 202.5 mins postinjection; assay type: ADME, organism-based, Macaca fascicularis; details: in vivo, 3.375 h
[2] = Drug uptake in anesthetized cynomolgus monkey brain cerebellum after 187.5 mins postinjection; assay type: ADME, organism-based, Macaca fascicularis; details: in vivo, 3.125 h
[3] = Ratio of drug uptake in putamen to cerebellum in awake rhesus monkey after 25 mins postinjection; assay type: ADME, organism-based, Macaca mulatta; details: in vivo
[4] = Ratio of drug uptake in occipital lobe to cerebellum in awake rhesus monkey after 13.5 mins postinjection; assay type: ADME, organism-based, Macaca mulatta; details: in vivo, 0.225 h
[5] = Drug uptake in awake rhesus monkey occipital lobe after 4.5 mins postinjection; assay type: ADME, organism-based, Macaca mulatta; details: in vivo, 0.075 h
[6] = Drug uptake in awake rhesus monkey thalamus after 2.8 mins postinjection; assay type: ADME, organism-based, Macaca mulatta; details: in vivo, 168 s
[7] = Drug uptake in awake rhesus monkey frontal lobe after 1.3 mins postinjection; assay type: ADME, organism-based, Macaca mulatta; details: in vivo, 78 s
[8] = Drug uptake in awake rhesus monkey occipital lobe after 85 mins postinjection; assay type: ADME, organism-based, Macaca mulatta; details: in vivo
[9] = Drug uptake in awake rhesus monkey occipital lobe after 2.8 mins postinjection; assay type: ADME, organism-based, Macaca mulatta; details: in vivo, 168 s
[10] = Drug uptake in awake rhesus monkey caudate after 2.8 mins postinjection; assay type: ADME, organism-based, Macaca mulatta, Caudate nucleus; details: in vivo, 168 s
[11] = Drug uptake in awake rhesus monkey cerebellum after 1.3 mins postinjection; assay type: ADME, organism-based, Macaca mulatta; details: in vivo, 78 s
[12] = Ratio of drug uptake in putamen to cerebellum in awake rhesus monkey after 0.3 mins postinjection; assay type: ADME, organism-based, Macaca mulatta; details: in vivo, 0.005 h
[13] = Drug uptake in awake rhesus monkey midbrain after 2.3 mins postinjection; assay type: ADME, organism-based, Macaca mulatta; details: in vivo, 138 s
[14] = Ratio of drug uptake in occipital lobe to cerebellum in awake rhesus monkey after 10.5 mins postinjection; assay type: ADME, organism-based, Macaca mulatta; details: in vivo, 0.175 h
[15] = Ratio of drug uptake in pons to cerebellum in awake rhesus monkey after 2.3 mins postinjection; assay type: ADME, organism-based, Macaca mulatta; details: in vivo, 138 s
[16] = Drug uptake in awake rhesus monkey putamen after 0.3 mins postinjection; assay type: ADME, organism-based, Macaca mulatta; details: in vivo, 0.005 h
[17] = Drug uptake in awake rhesus monkey cerebellum after 0.3 mins postinjection; assay type: ADME, organism-based, Macaca mulatta; details: in vivo, 0.005 h
[18] = Drug uptake in awake rhesus monkey medulla after 2.3 mins postinjection; assay type: ADME, organism-based, Macaca mulatta, Medulla of organ; details: in vivo, 138 s
[19] = Drug uptake in awake rhesus monkey midbrain after 0.3 mins postinjection; assay type: ADME, organism-based, Macaca mulatta; details: in vivo, 0.005 h
[20] = Ratio of drug uptake in pons to cerebellum in awake rhesus monkey after 0.3 mins postinjection; assay type: ADME, organism-based, Macaca mulatta; details: in vivo, 0.005 h
[21] = Drug uptake in awake rhesus monkey occipital lobe after 35 mins postinjection; assay type: ADME, organism-based, Macaca mulatta; details: in vivo
[22] = Ratio of drug uptake in midbrain to cerebellum in awake rhesus monkey after 45 mins postinjection; assay type: ADME, organism-based, Macaca mulatta; details: in vivo, 0.75 h
[23] = Ratio of drug uptake in caudate to cerebellum in awake rhesus monkey after 0.8 mins postinjection; assay type: ADME, organism-based, Macaca mulatta; details: in vivo, 48 s
[24] = Ratio of drug uptake in pons to cerebellum in anesthetized cynomolgus monkey after 165 mins postinjection; assay type: ADME, organism-based, Macaca fascicularis; details: in vivo, 2.75 h
[25] = Ratio of drug uptake in frontal lobe to cerebellum in awake rhesus monkey after 4.5 mins postinjection; assay type: ADME, organism-based, Macaca mulatta; details: in vivo, 0.075 h
[26] = Ratio of drug uptake in pons to cerebellum in awake rhesus monkey after 105 mins postinjection; assay type: ADME, organism-based, Macaca mulatta; details: in vivo, 1.75 h
[27] = Ratio of drug uptake in pons to cerebellum in awake rhesus monkey after 55 mins postinjection; assay type: ADME, organism-based, Macaca mulatta; details: in vivo
[28] = Ratio of drug uptake in thalamus to cerebellum in awake rhesus monkey after 115 mins postinjection; assay type: ADME, organism-based, Macaca mulatta; details: in vivo
[29] = Drug uptake in awake rhesus monkey thalamus after 0.3 mins postinjection; assay type: ADME, organism-based, Macaca mulatta; details: in vivo, 0.005 h
[30] = Ratio of drug uptake in medulla to cerebellum in anesthetized cynomolgus monkey after 235 mins postinjection; assay type: ADME, organism-based, Macaca fascicularis; details: in vivo
[31] = Ratio of drug uptake in occipital lobe to cerebellum in awake rhesus monkey after 7.5 mins postinjection; assay type: ADME, organism-based, Macaca mulatta; details: in vivo, 0.125 h
[32] = Ratio of drug uptake in pons to cerebellum in anesthetized cynomolgus monkey after 205 mins postinjection; assay type: ADME, organism-based, Macaca fascicularis; details: in vivo
[33] = Drug uptake in awake rhesus monkey brain midbrain after 13.5 mins postinjection; assay type: ADME, organism-based, Macaca mulatta; details: in vivo, 0.225 h
[34] = Drug uptake in awake rhesus monkey brain thalamus after 1.25 mins postinjection; assay type: ADME, organism-based, Macaca mulatta; details: in vivo, 75 s
[35] = Ratio of drug uptake in thalamus to cerebellum in awake rhesus monkey after 75 mins postinjection; assay type: ADME, organism-based, Macaca mulatta; details: in vivo, 1.25 h
[36] = Drug uptake in awake rhesus monkey brain pons after 1.25 mins postinjection; assay type: ADME, organism-based, Macaca mulatta; details: in vivo, 75 s
[37] = Ratio of drug uptake in midbrain to cerebellum in awake rhesus monkey after 105 mins postinjection; assay type: ADME, organism-based, Macaca mulatta; details: in vivo, 1.75 h
[38] = Drug uptake in awake rhesus monkey brain cerebellum after 115 mins postinjection; assay type: ADME, organism-based, Macaca mulatta; details: in vivo
[39] = Drug uptake in awake rhesus monkey brain pons after 13.5 mins postinjection; assay type: ADME, organism-based, Macaca mulatta; details: in vivo, 0.225 h
[40] = Drug uptake in awake rhesus monkey brain pons after 4.5 mins postinjection; assay type: ADME, organism-based, Macaca mulatta; details: in vivo, 0.075 h
[41] = Ratio of drug uptake in frontal lobe to cerebellum in awake rhesus monkey after 75 mins postinjection; assay type: ADME, organism-based, Macaca mulatta; details: in vivo, 1.25 h
[42] = Ratio of drug uptake in frontal lobe to cerebellum in awake rhesus monkey after 55 mins postinjection; assay type: ADME, organism-based, Macaca mulatta; details: in vivo
[43] = Drug uptake in awake rhesus monkey brain pons after 0.25 mins postinjection; assay type: ADME, organism-based, Macaca mulatta; details: in vivo, 15 s
[44] = Ratio of drug uptake in medulla to cerebellum in awake rhesus monkey after 45 mins postinjection; assay type: ADME, organism-based, Macaca mulatta; details: in vivo, 0.75 h
[45] = Protein binding in anesthetized cynomolgus monkey plasma after 60 mins postinjection; assay type: ADME, organism-based, Macaca fascicularis; details: read-out: PPB (converted)
[46] = Protein binding in anesthetized cynomolgus monkey plasma after 15 mins postinjection; assay type: ADME, organism-based, Macaca fascicularis; details: read-out: PPB (converted)
[47] = Drug uptake in awake rhesus monkey brain pons after 2.75 mins postinjection; assay type: ADME, organism-based, Macaca mulatta; details: in vivo, 165 s
[48] = Drug uptake in awake rhesus monkey brain frontal lobe after 1.75 mins postinjection; assay type: ADME, organism-based, Macaca mulatta; details: in vivo, 105 s
[49] = Ratio of drug uptake in frontal lobe to cerebellum in awake rhesus monkey after 45 mins postinjection; assay type: ADME, organism-based, Macaca mulatta; details: in vivo, 0.75 h
[50] = Drug uptake in awake rhesus monkey brain cerebellum after 0.75 mins postinjection; assay type: ADME, organism-based, Macaca mulatta; details: in vivo, 45 s
[51] = Protein binding in anesthetized cynomolgus monkey plasma after 30 mins postinjection; assay type: ADME, organism-based, Macaca fascicularis; details: read-out: PPB (converted)
[52] = Protein binding in anesthetized cynomolgus monkey plasma after 180 mins postinjection; assay type: ADME, organism-based, Macaca fascicularis; details: read-out: PPB (converted)
[53] = Protein binding in anesthetized cynomolgus monkey plasma after 1 min postinjection; assay type: ADME, organism-based, Macaca fascicularis; details: read-out: PPB (converted)
[54] = Drug uptake in awake rhesus monkey brain medulla after 1.25 mins postinjection; assay type: ADME, organism-based, Macaca mulatta; details: in vivo, 75 s
[55] = Metabolic stability in anesthetized cynomolgus monkey plasma after 180 mins postinjection; assay type: ADME, organism-based, Macaca fascicularis; details: read-out: Stability
[56] = Drug uptake in awake rhesus monkey brain frontal lobe after 1.25 mins postinjection; assay type: ADME, organism-based, Macaca mulatta; details: in vivo, 75 s
[57] = Drug uptake in awake rhesus monkey brain medulla after 17.5 mins postinjection; assay type: ADME, organism-based, Macaca mulatta; details: in vivo
[58] = Metabolic stability in anesthetized cynomolgus monkey plasma after 1 min postinjection; assay type: ADME, organism-based, Macaca fascicularis; details: read-out: Stability
[59] = Protein binding in anesthetized cynomolgus monkey plasma after 120 mins postinjection; assay type: ADME, organism-based, Macaca fascicularis; details: read-out: PPB (converted)
[60] = Protein binding in anesthetized cynomolgus monkey plasma after 5 mins postinjection; assay type: ADME, organism-based, Macaca fascicularis; details: read-out: PPB (converted)
[61] = Drug uptake in awake rhesus monkey brain frontal lobe after 2.25 mins postinjection; assay type: ADME, organism-based, Macaca mulatta; details: in vivo, 135 s
[62] = Ratio of drug uptake in caudate to cerebellum in awake rhesus monkey after 13.5 mins postinjection; assay type: ADME, organism-based, Macaca mulatta; details: in vivo, 0.225 h
[63] = Drug uptake in awake rhesus monkey brain caudate after 2.25 mins postinjection; assay type: ADME, organism-based, Macaca mulatta, Caudate nucleus; details: in vivo, 135 s
[64] = Ratio of drug uptake in putamen to cerebellum in awake rhesus monkey after 4.5 mins postinjection; assay type: ADME, organism-based, Macaca mulatta; details: in vivo, 0.075 h
[65] = Ratio of drug uptake in medulla to cerebellum in awake rhesus monkey after 25 mins postinjection; assay type: ADME, organism-based, Macaca mulatta; details: in vivo
[66] = Drug uptake in awake rhesus monkey brain putamen after 1.25 mins postinjection; assay type: ADME, organism-based, Macaca mulatta; details: in vivo, 75 s

## O=C(OCCC[18F])C1C2CCC(CC1c1cccc(/C=C\Br)c1)N2 (stereo unspecified)
[1]
  Drug uptake: 2.23
[2]
  Drug uptake: 2.35

## O=C(OCC[18F])C1C2CCC(CC1c1ccc(/C=C\I)cc1)N2 (stereo unspecified)
[3]
  Ratio: 1.3
[4]
  Ratio: 1
[5]
  Drug uptake: 0.96
[6]
  Drug uptake: 0.65
[7]
  Drug uptake: 0.05
[8]
  Drug uptake: 2.74
[9]
  Drug uptake: 0.53
[10]
  Drug uptake: 0.53
[11]
  Drug uptake: 0.06
[12]
  Ratio: 5.1
[13]
  Drug uptake: 0.39
[14]
  Ratio: 0.9
[15]
  Ratio: 0.9
[16]
  Drug uptake: 0.05
[17]
  Drug uptake: 0.01
[18]
  Drug uptake: 0.68
[19]
  Drug uptake: 0.08
[20]
  Ratio: 0
[21]
  Drug uptake: 2.65
[22]
  Ratio: 1.3
[23]
  Ratio: 0
[24]
  Ratio: 2.6
[25]
  Ratio: 0.9
[26]
  Ratio: 1.8
[27]
  Ratio: 1.3
[28]
  Ratio: 2.6
[29]
  Drug uptake: 0
[30]
  Ratio: 3.3
[31]
  Ratio: 1
[32]
  Ratio: 2.7

## O=C(OCC[18F])C1C2CCC(CC1c1cccc(/C=C\I)c1)N2 (stereo unspecified)
[33]
  Drug uptake: 0.09
[34]
  Drug uptake: 0.01
[35]
  Ratio: 1.5
[36]
  Drug uptake: 0.01
[37]
  Ratio: 1.7
[38]
  Drug uptake: 0.08
[39]
  Drug uptake: 0.08
[40]
  Drug uptake: 0.05
[41]
  Ratio: 1.1
[42]
  Ratio: 1
[43]
  Drug uptake: 0
[44]
  Ratio: 1
[45]
  fraction unbound at 1 h: 0.915
[46]
  fraction unbound at 0.25 h: 0.932
[47]
  Drug uptake: 0.02
[48]
  Drug uptake: 0.02
[49]
  Ratio: 1
[50]
  Drug uptake: 0
[51]
  fraction unbound at 0.5 h: 0.916
[52]
  fraction unbound at 3 h: 0.915
[53]
  fraction unbound at 1 min: 0.942
[54]
  Drug uptake: 0.01
[55]
  remaining at 3 h: 13%
[56]
  Drug uptake: 0
[57]
  Drug uptake: 0.1
[58]
  remaining at 1 min: 93%
[59]
  fraction unbound at 2 h: 0.934
[60]
  fraction unbound at 5 min: 0.925
[61]
  Drug uptake: 0.02
[62]
  Ratio: 1.1
[63]
  Drug uptake: 0.03
[64]
  Ratio: 1.3
[65]
  Ratio: 1
[66]
  Drug uptake: 0.01
